Data on 7 compounds can be found in US7329666B2, “Derivatives of variolin B” (Pharma Mar, S.A., priority 2000, dated 2008).

pIC50: −log10 of the molar value.

One series has as its system P-388. Description: cytotoxicity against P-388. Type of series: cell-based. Conditions: Mus musculus, P388. On the procedure:
(§1) The cytotoxicity of the compounds of scheme 4 of this invention is illustrated by the following IC50 μM data: […]

For another series, the system named is HT-29. Put plainly: cytotoxicity against HT-29. It counts as cell-based. Conditions: Homo sapiens. On the procedure:
as §1

Another series deals with A-549. Description: cytotoxicity against A-549. Conditions: Homo sapiens, A549. Type of series: cell-based. On the procedure:
as §1

For the next series, the system named is Sacharomyces cerevisiae. Conditions: cited from earlier work.
For another series, the system named is HCT 116 cell line. Conditions: cited from earlier work.
Another series relates to P388 cell line. Conditions: Tetrahedron 1994, 50, 3987-3992; cited from earlier work.
For series [1] the following is noted: cited from earlier work.
The subject of a further series is Herpes simplex. Conditions: cited from earlier work.
The subject of the next series is other microorganisms. Conditions: cited from earlier work.

The term pIC50 denotes −log10 of the IC50, conventionally taken in molar units. High values mean a low IC50, low ones a high IC50. For the compound `Nc1nccc(-c2c3cccnc3n3c(N)nccc23)n1` [Compound 5, 9-Amino-5-(2-aminopyrimidin-4-yl)pyrido[3′,2′:4,5]pyrrolo[1,2-c]-pyrimidine], the figures for the pIC50 in the series with P-388, in the series with HT-29 and with A-549 were 6.44, 7.40 and 7.40, respectively.
`CSc1nccc(-c2c3cccnc3n3c(NC(C)=O)nccc23)n1` [Compound 20a, 9-Acetylamino-5-(2-methanesulfanylpyrimidin-4-yl)pyrido[3′,2′:4,5]-pyrrolo-[1,2-c]pyrimidine]: the pIC50 with P-388 was < 5.52; with HT-29, 6.54; in the series on A-549, 6.54.
In the case of `CSc1nccc(-c2c3cccnc3n3c(N)nccc23)n1` [Compound 21, 9-Amino-5-(2-methanesulfanylpyrimidin-4-yl)pyrido[3′,2′:4,5]pyrrolo[1,2-c]pyrimidine], the pIC50 is < 5.52 in the series on P-388, 6.80 with HT-29 and 6.80 with A-549.
`CN1C(N)=NCCC1c1c2c(O)ccnc2n2c(N)nccc12` (stereo not shown) [N(3′)-methyltetrahydrovariolin B, N (3′)-methyl tetrahydrovariolin B]: the “growth of Sacharomyces cerevisiae” value in the series with Sacharomyces cerevisiae was “inhibited the growth”. For the same compound, the “in vitro activity against the HCT 116 cell line” value with HCT 116 cell line was “in vitro activity”.
With `C[n+]1c([O-])cc(-c2c3c(O)ccnc3n3c(N)nccc23)nc1N` [Variolin A], the “cytotoxic activity against the P388 cell line” value in the series on P388 cell line is given as “important cytotoxic activity”.
`COC(=O)c1c2c(O)ccnc2n2c(N)nccc12` [Variolin D, variolin D]: the “activity in all the assays” value in series [1] was “inactive”.
Turning to `Nc1nccc(-c2c3c(O)ccnc3n3c(N)nccc23)n1` [variolin B], the “effectiveness against Herpes simplex” value in the series on Herpes simplex is “effective”. For the same compound, the values for the pIC50 in the series with P-388, in the series with HT-29 and in the series on A-549 were 6.07, 7.05 and 6.77, respectively. Also, the “activity against a range of other microorganisms” value in the series with other microorganisms is “inactive”. In addition, the “cytotoxic activity against the P388 cell line” value in the series on P388 cell line is on record as “cytotoxic activity”.
